Test results reported in patent publication US20210179578A1, “OX1 ANTAGONISTS” (Heptares Therapeutics Limited, priority 2017, published 2021).

The compounds below were run against T1, human OX1 receptor (Homo sapiens, UniProt O43613) (assay: [3H]-radioligand binding assay, OX1). Details: [3H]-radioligand binding, human OX1 membranes; read-out: pKi average OX1 (converted).
T1 sequence (O43613 1-425): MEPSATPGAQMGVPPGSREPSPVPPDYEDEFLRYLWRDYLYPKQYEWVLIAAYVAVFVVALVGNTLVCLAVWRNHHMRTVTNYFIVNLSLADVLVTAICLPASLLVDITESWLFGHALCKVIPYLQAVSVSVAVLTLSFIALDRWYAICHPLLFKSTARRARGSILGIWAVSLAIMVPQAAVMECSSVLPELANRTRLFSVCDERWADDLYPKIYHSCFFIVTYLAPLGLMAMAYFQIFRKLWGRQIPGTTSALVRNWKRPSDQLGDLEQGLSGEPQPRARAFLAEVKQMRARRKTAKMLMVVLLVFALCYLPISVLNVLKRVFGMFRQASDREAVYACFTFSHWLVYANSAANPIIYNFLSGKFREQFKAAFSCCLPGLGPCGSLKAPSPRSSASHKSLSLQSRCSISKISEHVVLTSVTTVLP
Set-up: made in house; host or cells: SF21 insect cells (baculovirus; P0 virus made in SF9)
Excerpt: Cloning, Baculovirus generation, large-scale infection of SF21 cells and membrane preparation. Human OX1 or OX2 receptor were cloned into Invitrogen's (ThermoFisher Scientific, UK) Bac-to-Bac Baculovirus Expression System. P0 baculovirus was generated by transfecting SF9 cells with bacmid DNA using Cellfectin® II transfection reagent (ThermoFisher Scientific, UK, Catalog number 10362-100). Following P0 generation P1 virus was then generated ready for large scale infection and membrane preparation. SF21 cells were grown in expression medium ESF921 (Expression Systems, USA, catalog number 96-001-01) supplemented with 10% heat-inactivated FBS and 1% Pen/Strep and were infected at a cell density of 2.5×10^6 cells/mL and a multiplicity of infection of 1.0 for both human OX1R and OX2R. Incubation was carried out at over 48 h in a shaking incubator set at 27° C. The cell culture was then centrifuged at 2,500 rcf for 10 min at 4° C. The pellets were resuspended in cold PBS supplemented with Roche's Complete EDTA-free protease inhibitor cocktail tablets (Roche Applied Sciences, catalog number 05056489001), 1 mM PMSF and 1 mM EDTA. The resuspended cell paste was then centrifuged at 3,273 rcf for 12 min at 4° C. The supernatant was discarded and the pellet frozen at −80° C. The cell pellet from a 4 L culture was resuspended in buffer containing 50 mM HEPES pH 7.5, 150 mM NaCl, 8 Roche EDTA-Free protease inhibitor cocktail tablets and 1 mM PMSF. The suspension was left stirring at rt for 1 h and then homogenised for 90 s at 9,500 rpm using a VDI 25 (VWR, USA) homogeniser. The cells were then lysed using a Microfluidiser processor M-110L Pneumatic (Microfluidics, USA) at 60 PSI and membranes collected by ultracentrifugation at 204.7 k×g for 1 h. The supernatant was discarded and the pellet was resuspended and homogenised in 90 s at 9,500 rpm in 50 mL (25 mL for each 2 L culture) of buffer containing 50 mM Hepes pH 7.5, 150 mM NaCl, 3 Roche EDTA-free protease inhibitor cocktail tablets and 1 mM PMSF. The resulting membranes were then stored at −80° C.
[^3H]-radioligand binding assay. After thawing, membrane homogenates were resuspended in the binding buffer (8.5 mM HEPES, pH 7.4, 1.3 mM CaCl2, 1.2 mM MgSO4, 118 mM NaCl, 4.7 mM KCl, 4 mM NaHCO3, 1.2 mM KH2PO4, 11 mM glucose) to a final assay concentration of 6.4 μg (OX1) or 1.4 μg (OX2) protein per well. Saturation isotherms were determined by the addition of various concentrations (0-30 nM) of [^3H]-4-(2,6-difluoro-4-methoxybenzyl)-2-(5,6-dimethoxypyridin-3-yl)-2H-1,2,4-benzothiadiazin-3(4H)-one 1,1-dioxide (Christopher et al, MedChemComm., 2015, 6, 947-955) in a total reaction volume of 250 μL for 90 min at rt. At the end of the incubation, membranes were filtered onto a 96-well GF/B filter pre-incubated with 0.5% polyethylenimine, with a Tomtec cell harvester and washed 5 times with 0.5 mL distilled water. Non-specific binding (NSB) was measured in the presence of 3.33 μM [4-(5-chloro-1,3-benzoxazol-2-yl)-7-methyl-1,4-diazepan-1-yl][5-methyl-2-(2H-1,2,3-triazol-2-yl)phenyl]methanone (Wertz et al, Angew. Chem. Int. Ed., 2011, 50, 11511-11515). Radioactivity on the filter was counted (1 min) on a Microbeta radiometric plate counter (Perkin Elmer) after addition of 50 μL of scintillation fluid (LabLogic: Part #SG-BXX-14). […] IC50 values were derived from the inhibition curve and the equilibrium dissociation constant (Ki) values were calculated using the Cheng-Prusoff equation.
COc1ncc(C2CCc3c(F)cccc3N(Cc3c(F)cc(Br)cc3F)C2=O)cc1S(C)(=O)=O (racemic) [Example 19, 1-(4-bromo-2,6-difluorobenzyl)-6-fluoro-3-[6-methoxy-5-(methylsulfonyl)pyridin-3-yl]-1,3,4,5-tetrahydro-2H-1-benzazepin-2-one] was tested, and the Ki was 3.98 nM. COc1ncc(C2CCc3c(F)cccc3N(Cc3c(F)cc(Br)cc3F)C2=O)cc1C(C)(F)F (single isomer, unassigned) [Example 12, 1-(4-bromo-2,6-difluorobenzyl)-3-[5-(1,1-difluoroethyl)-6-methoxypyridin-3-yl]-6-fluoro-1,3,4,5-tetrahydro-2H-1-benzazepin-2-one] showed a Ki of 0.398 nM. COc1ncc(C2CCc3c(F)cccc3N(Cc3cc(C#N)ccc3F)C2=O)cc1C(C)(F)F (single isomer, unassigned) [Example 13, 3-({3-[5-(1,1-difluoroethyl)-6-methoxypyridin-3-yl]-6-fluoro-2-oxo-2,3,4,5-tetrahydro-1H-1-benzazepin-1-yl}methyl)-4-fluorobenzonitrile] was tested, and the Ki was 0.794 nM. COc1ncc(C2CCc3c(F)cccc3N(Cc3c(F)cc(Br)cc3F)C2=O)cc1S(C)(=O)=O (single isomer, unassigned) [Example 21, 1-(4-bromo-2,6-difluorobenzyl)-6-fluoro-3-[6-methoxy-5-(methylsulfonyl)pyridin-3-yl]-1,3,4,5-tetrahydro-2H-1-benzazepin-2-one] was tested, and the Ki was 0.316 nM. For COc1ncc(C2CCc3c(F)cccc3N(Cc3c(F)cc(Cl)cc3F)C2=O)cc1S(C)(=O)=O (single isomer, unassigned) [Example 22, 1-(4-chloro-2,6-difluorobenzyl)-6-fluoro-3-[6-methoxy-5-(methylsulfonyl)pyridin-3-yl]-1,3,4,5-tetrahydro-2H-1-benzazepin-2-one], the Ki was 0.501 nM. With Cc1ncc(C2CCc3c(F)cccc3N(Cc3c(F)cc(Br)cc3F)C2=O)cc1C(C)(F)F (single isomer, unassigned) [Example 35, 1-(4-bromo-2,6-difluorobenzyl)-3-[5-(1,1-difluoroethyl)-6-methylpyridin-3-yl]-6-fluoro-1,3,4,5-tetrahydro-2H-1-benzazepin-2-one] the Ki was 2 nM. Cc1ncc(C2CCc3c(F)cccc3N(Cc3c(F)cc(Br)cc3F)C2=O)cc1C(C)(F)F (single isomer, unassigned) [Example 36, 1-(4-bromo-2,6-difluorobenzyl)-3-[5-(1,1-difluoroethyl)-6-methylpyridin-3-yl]-6-fluoro-1,3,4,5-tetrahydro-2H-1-benzazepin-2-one] was tested, and the Ki was 0.631 nM. Cc1ncc(C2CCc3c(F)cccc3N(Cc3c(F)cc(Br)cc3F)C2=O)cc1S(C)(=O)=O (single isomer, unassigned) [Example 38, 1-(4-bromo-2,6-difluorobenzyl)-6-fluoro-3-[6-methyl-5-(methylsulfonyl)pyridin-3-yl]-1,3,4,5-tetrahydro-2H-1-benzazepin-2-one] showed a Ki of 10 nM. For Cc1ncc(C2CCc3c(F)cccc3N(Cc3c(F)cc(Br)cc3F)C2=O)cc1S(C)(=O)=O (single isomer, unassigned) [Example 39, 1-(4-bromo-2,6-difluorobenzyl)-6-fluoro-3-[6-methyl-5-(methylsulfonyl)pyridin-3-yl]-1,3,4,5-tetrahydro-2H-1-benzazepin-2-one], the Ki was 1.26 nM. Cc1ccc(N2CCc3c(F)cccc3N(Cc3c(F)cc(Br)cc3F)C2=O)cc1C(C)(F)F [Example 1, 1-(4-bromo-2,6-difluorobenzyl)-3-[3-(1,1-difluoroethyl)-4-methylphenyl]-6-fluoro-1,3,4,5-tetrahydro-2H-1,3-benzodiazepin-2-one] showed a Ki of 2 nM. Work on [2H]C([2H])([2H])Oc1ncc(N2CCc3c(F)cccc3N(Cc3c(F)cc(Br)cc3F)C2=O)cc1C(C)(F)F [Example 2, 1-(4-bromo-2,6-difluorobenzyl)-3-{5-(1,1-difluoroethyl)-6-[(^2H3)methyloxy]pyridin-3-yl}-6-fluoro-1,3,4,5-tetrahydro-2H-1,3-benzodiazepin-2-one] yielded a Ki of 0.631 nM. COc1ncc(N2CCc3c(F)cccc3N(Cc3c(F)cc(Br)cc3F)C2=O)cc1C(C)(F)F [Example 3, 1-(4-bromo-2,6-difluorobenzyl)-3-[5-(1,1-difluoroethyl)-6-methoxypyridin-3-yl]-6-fluoro-1,3,4,5-tetrahydro-2H-1,3-benzodiazepin-2-one] gave a Ki of 1.26 nM. COc1ccc(CN2C(=O)N(c3cnc(OC)c(C(C)(F)F)c3)CCc3c(F)cccc32)c(F)c1 [Example 4, 3-[5-(1,1-difluoroethyl)-6-methoxypyridin-3-yl]-6-fluoro-1-(2-fluoro-4-methoxybenzyl)-1,3,4,5-tetrahydro-2H-1,3-benzodiazepin-2-one] showed a Ki of 0.794 nM. [2H]C([2H])([2H])OCc1cc(F)c(CN2C(=O)N(c3cnc(OC)c(C(C)(F)F)c3)CCc3c(F)cccc32)c(F)c1 [Example 5, 3-[5-(1,1-difluoroethyl)-6-methoxypyridin-3-yl]-1-(2,6-difluoro-4-{[(^2H3)methyloxy]methyl}benzyl)-6-fluoro-1,3,4,5-tetrahydro-2H-1,3-benzodiazepin-2-one] was tested, and the Ki was 0.316 nM. Work on [2H]C([2H])([2H])Oc1cc(F)c(CN2C(=O)N(c3cnc(OC)c(C(C)(F)F)c3)CCc3c(F)cccc32)c(F)c1 [Example 6, 3-[5-(1,1-difluoroethyl)-6-methoxypyridin-3-yl]-1-{2,6-difluoro-4-[(^2H3)methyloxy]benzyl}-6-fluoro-1,3,4,5-tetrahydro-2H-1,3-benzodiazepin-2-one] yielded a Ki of 0.398 nM. COCc1cc(F)c(CN2C(=O)N(c3cnc(OC)c(C(C)(F)F)c3)CCc3c(F)cccc32)c(F)c1 [Example 7, 3-[5-(1,1-difluoroethyl)-6-methoxypyridin-3-yl]-1-[2,6-difluoro-4-(methoxymethyl)benzyl]-6-fluoro-1,3,4,5-tetrahydro-2H-1,3-benzodiazepin-2-one] gave a Ki of 1 nM. In the case of COc1cc(F)c(CN2C(=O)N(c3cnc(OC)c(C(C)(F)F)c3)CCc3c(F)cccc32)c(F)c1 [Example 8, 3-[5-(1,1-difluoroethyl)-6-methoxypyridin-3-yl]-1-(2,6-difluoro-4-methoxybenzyl)-6-fluoro-1,3,4,5-tetrahydro-2H-1,3-benzodiazepin-2-one], the Ki is reported as 0.398 nM. For COc1ncc(N2CCc3c(F)cccc3N(Cc3c(F)cc(Cl)cc3F)C2=O)cc1C(C)(F)F [Example 9, 1-(4-chloro-2,6-difluorobenzyl)-3-[5-(1,1-difluoroethyl)-6-methoxypyridin-3-yl]-6-fluoro-1,3,4,5-tetrahydro-2H-1,3-benzodiazepin-2-one], the Ki was 0.794 nM. In the case of COc1ncc(N2CCc3c(F)cccc3N(Cc3ccc(Br)cc3F)C2=O)cc1C(C)(F)F [Example 10, 1-(4-bromo-2-fluorobenzyl)-3-[5-(1,1-difluoroethyl)-6-methoxypyridin-3-yl]-6-fluoro-1,3,4,5-tetrahydro-2H-1,3-benzodiazepin-2-one], the Ki is reported as 1.26 nM.
